Assays:
[1] = Broth DAP test: trained panel rates saltiness of compounds in simple broth; assay type: in vivo; design: key: DAP score; >7.6 indicates saltiness or salt enhancement in broth; settings: single compound in simple broth; best DAP score of tested concentrations 0.1, 1 and 10 ppm; DAP score greater than 7.6 indicates saltiness or salt enhancement
Experimental: (§1) Briefly, each individual tested compound was placed in water and in sodium solution to test saltiness and saltiness enhancement potential. Tests in water were executed in a compound concentration of 10 ppm. Tests in sodium solution were executed in compound concentrations of 0.1, 1 and 10 ppm. Two control sodium solutions with known organoleptic salt intensities were provided as references for each test. The test for individual compounds was also conducted using simple broth instead of sodium solution. A number of compound combinations identified from the Na-solution DAP test were used for the broth DAP test. Tests were executed with a trained panel of 9-12 assessors. For Na-solution DAP tests, a DAP score of greater than 3.1 indicates saltiness or salt enhancement. The DAP score can be correlated with a sodium reduction potential by subtracting 3.1 from the DAP score. […] For broth DAP tests, a DAP score of greater than 7.6 indicates saltiness or salt enhancement. The DAP score can be correlated with a sodium reduction potential by subtracting 7.6 from the DAP score.

[2] = Na-solution DAP test: trained panel rates saltiness of compounds in sodium solution; assay type: in vivo; design: key: DAP score; >3.1 indicates saltiness or salt enhancement; settings: single compound in sodium solution; best DAP score of tested concentrations 0.1, 1 and 10 ppm; DAP score greater than 3.1 indicates saltiness or salt enhancement
Experimental: as §1

SMILES	DAP in Broth [1]	DAP in Na-Sol. [2]
CCCCCCCCCCC[C@H](O)CC(=O)CCc1ccc(O)c(OC)c1 [Compound 1, 12-Gingerol]	7.8	3.6
CCCCCCCCC/C=C/C(=O)CCc1ccc(O)c(OC)c1 [Compound 2, [10]-Shogaol]	7.8	3.5
CCCCCC(CC(CCc1ccc(O)c(OC)c1)OC(C)=O)OC(C)=O (centres unmarked) [Compound 3, [6]-Gingerdiacetate]	8.8	4.1
CCCCC/C=C/C(=O)CCc1ccc(O)c(OC)c1 [Compound 4, 6-Shogaol]		3.5
CCCCC[C@H](O)CC(=O)CCc1ccc(O)c(OC)c1 [Compound 5, [6]-Gingerol]		3.6
CCCCCCCCC(=O)CCc1ccc(O)c(OC)c1 [Compound 6, [7]-Paradol]		3.8
CCCCCCCC(=O)CCc1ccc(O)c(OC)c1 [Compound 7, [6]-Paradol or [6]-Gingerone]		3.7
CCCCCC(CC(=O)CCc1ccc(O)c(OC)c1)OC (centres unmarked) [Compound 8, 5-methoxy-[6]-Gingerol]		4
CCCCCCC[C@H](O)CC(=O)CCc1ccc(O)c(OC)c1 [Compound 9, 8-Gingerol]		3.8
CCC=CC(=O)CCc1ccccc1 [Compound 11, a 1-Ph-4-hepten-3-one]	8.1	2.6
CCC(O)CC(=O)CCc1ccccc1 (centres unmarked) [Compound 12, a 1-Ph-5-OH-3-heptanone]	7.6	4
COc1cc(COC(=O)CCCC/C=C/C(C)C)ccc1O [Compound 13, Capsiate]	7.9	3.8
O=C(/C=C/CC/C=C/c1ccc2c(c1)OCO2)N1CCCCC1 [Compound 14, Pipersintenamide]		3.6
CC(C)CNC(=O)/C=C/C=C/CCCCCC/C=C/c1ccc2c(c1)OCO2 [Compound 15, Guineensine]	8.1	3.5
CCCCC/C=C\CCCCCCc1cc(=O)c2ccccc2n1C [Compound 17, Evocarpine]	8.2	3.6
O=C(/C=C/C=C/c1ccc2c(c1)OCO2)N1CCCCC1 [Compound 18, Piperine]	8.1	3.8
CCC(O)CC(=O)CCc1ccccc1 (centres unmarked) [Compound 20, a 1-Ph-5-OH-3-heptanone]		4
COc1cc(CNC(=O)CCCCCCC(C)C)ccc1O [Compound 21, Dihydrocapsaicin]		4
COc1c(OC)c(OC)c2c(c1OC)c(=O)c1ccccc1n2C [Compound 23, Melicopicine]	8.3	2.9
COc1c(CC=C(C)C)c(=O)n(C)c2c(OC)cccc12 [Compound 25, O-Methylglycosolone]		3.9
COc1ccc(-c2c(O)c3c(OC)c4c(cc3oc2=O)OC(C)(C)C=C4)cc1 [Compound 26, Robustic acid]		3.4
COc1c2c(cc3oc(=O)ccc13)OC(C)(C)C=C2 [Compound 27, Xanthoxyletin]		3.4

SMILES	DAP in Broth [1]	DAP in Na-Sol. [2]
COc1cc2oc(=O)ccc2c(OC)c1CC=C(C)C [Compound 28, Toddaculin]		3.6
C=CC(C)(O)CC[C@@]1(C)C2=C([C@H](OC(C)=O)[C@H](OC(C)=O)[C@H]1C)C(C)(C)CCC2 (some centres unmarked) [Compound 29, Vitetrifolin D]	8.0	3.5
CC(=O)OC1CC(C)C2(CCC3(COC(=O)C3)O2)C2(C)CCCC(C)(C)C12 (centres unmarked) [Compound 30]		3.1
C[C@@H]1C[C@H]2OC(=O)[C@@]3(C)CCC[C@](C)(C23)[C@@]1(O)CCc1ccoc1 (some centres unmarked) [Compound 31, Marrubin]		3.2
C=C[C@@]1(C)CC(=O)C2[C@]3(C)C(C[C@@H](O)[C@@]2(O)C1=O)C(C)(C)[C@H](OC(C)=O)[C@H](OC(C)=O)[C@@H]3OC(=O)c1ccccc1 (some centres unmarked) [Compound 32, Orthosiphol I]	8.1	3.5
C=C[C@@]1(C)CC(=O)C2[C@]3(C)C(C[C@@H](OC(C)=O)[C@@]2(O)C1=O)C(C)(C)[C@H](O)[C@H](OC(C)=O)[C@@H]3OC(=O)c1ccccc1 (some centres unmarked) [Compound 33, Orthosiphol M]	7.7	3.4
C/C=C(\C)C(=O)O[C@H]1[C@H](O)[C@]2(CO)[C@H](O)C[C@]3(C)C(=CCC4[C@@]5(C)CC[C@H](O[C@@H]6O[C@H](C(=O)O)C(O[C@@H]7O[C@H](CO)[C@@H](O)[C@H](O)[C@H]7O)[C@H](O)[C@H]6O[C@@H]6O[C@H](CO)[C@@H](O)[C@H](O)[C@H]6O)[C@](C)(CO)C5CC[C@]43C)[C@@H]2CC1(C)C (some centres unmarked) [Compound 34, Aesculioside A]	7.7	3.9
C=CC(C)(O)CC/C=C(\C)C(=O)OC1C(OCC2OC(OC(=O)C34CCC(C)(C)CC3C3=CCC5C6(C)CCC(OC7OC(COC8OCC(O)C(O)C8OC8OCC(O)C(O)C8O)C(O)C(O)C7O)C(C)(C)C6CCC5(C)C3(C)CC4O)C(OC3OC(C)C(OC4OCC(O)C(OC5OCC(O)C(O)C5O)C4O)C(O)C3O)C(OC(=O)/C(C)=C/CCC(C)(O)C=C)C2O)OC(C)C(O)C1O (centres unmarked) [Compound 35]	8.1	3.7
CC1CCC2(OC1)OC1CC3C4CCC5CC(OC6OC(CO)C(OC7OC(CO)C(O)C(OC8OC(CO)C(O)C(OC9OCC(O)C(O)C9O)C8O)C7O)C(OC7OCC(O)C(O)C7O)C6O)CCC5(C)C4CC(=O)C3(C)C1C2C (centres unmarked) [Compound 37]	8.1	3.7
CC(=O)OC1C(O)COC(OC2C(O)C(C)OC(OC(C)(CCC=C(C)C)C3C(O)CC4(C)C3CCC3C5(C)CCC(OC6OCC(O)C(O)C6O)C(C)(C)C5CCC34C)C2O)C1O (centres unmarked) [Compound 38]	8.1	3.9
O=C(O)/C=C/c1ccc(O)c2c1C(C(=O)OC(Cc1ccc(O)c(O)c1)C(=O)O)C(c1ccc(O)c(O)c1)O2 (centres unmarked) [Compound 40, a 3-benzofurancarboxylic ester]	7.8	3.5
COc1cc(O)c(C(/C=C/CC(O)CCc2ccc(O)cc2)c2ccc(O)cc2)c2c1C(=O)CC(c1ccc(O)cc1)O2 (centres unmarked) [Compound 50, Epicalyxin C]		4
C/C(=C\CC/C(C)=C/CC[C@@H]1[C@@]2(C)CCC(=O)C(C)(C)C2CC[C@@]1(C)O)CC/C=C(\C)C(=O)O (some centres unmarked) [Compound 52, Myrrhanone B]		3.6
O=c1c2ccccc2nc2n1CCc1c-2[nH]c2ccccc12 [Compound 57, Rutaecarpine]		3.1
COc1c(CC=C(C)C)c(=O)[nH]c2ccccc12 [Compound 61, Atanine]		3.6
C/C=C1\C(=O)CC2C3CCC4=CC(=O)CC[C@]4(C)C3CCC12C (some centres unmarked) [Compound 75, (Z)-Guggulsterone]		3.6
C=C1C(=O)OC2CC3(C)CCCC(C)C3=CC12 (centres unmarked) [Compound 80a, Alantolactone]		3.9
C=C1C(=O)O[C@@H]2C[C@@]3(C)CCCC(=C)[C@@H]3C[C@H]12 [Compound 80b, Isoalantolactone]		3.9
CCC=CCC=CC=CC(O)CCCCCCCC(=O)O (centres unmarked) [Compound 85, 9-hydroxy-10,12,15-Octadecatrienoic acid]		2.9
C=CC(C)(CC/C=C(\C)CC/C=C(\C)CC/C=C(/C)COC1OC(C)C(O)C(OC2OC(COC3OC(C)C(O)C(O)C3OC(=O)/C(C)=C/CC/C(C)=C/CC/C(C)=C/CCC(C)(C=C)OC3OC(CO)C(O)C(O)C3OC3OC(CO)C(O)C(O)C3O)C(O)C(O)C2O)C1O)OC1OC(CO)C(O)C(O)C1OC1OC(CO)C(O)C(O)C1O (centres unmarked) [Compound 91, Capsianoside E]		3.7
C=CC(C)(CC/C=C(\C)CC/C=C(\C)CC/C=C(/C)COC1OC(C)C(O)C(OC2OC(COC3OC(C)C(O)C(O)C3OC(=O)/C(C)=C/C(O)C/C(C)=C/CC/C(C)=C/CCC(C)(C=C)OC3OC(CO)C(O)C(O)C3OC3OC(CO)C(O)C(O)C3O)C(O)C(O)C2O)C1O)OC1OC(CO)C(O)C(O)C1OC1OC(CO)C(O)C(O)C1O (centres unmarked) [Compound 92, Capsianoside D]		4
C=C1C2CCC3C4(C)CCCC(C)(C(=O)O)C4CCC3(C2)C1OC(C)=O (centres unmarked) [Compound 94, Xylopic acid]		4.2

Reference: US10159268B2, “Reduced sodium food products” (GENERAL MILLS, INC., priority 2013, dated 2018)
